Source: publication PMC9681850, “Structural basis of synthetic agonist activation of the nuclear receptor REV-ERB” (Nature Communications, 2022)
Where “and” joins values, the source holds several entries; their conditions need not be identical. Equal values may be shown once. Read-outs that look alike come from different tables or passages of the source.

Tests used:
[1] = system: REV-ERBα F497A, F443A, L480A, F439A, and F484A; assay: two-hybrid reporter assay with mutant receptors; type: cell-based, human; conditions: F484A vs WT
Method: The removal of the bulkier Phe488 sidechain may allow for the ligand binding pocket to wrap around the ligand more tightly, which may explain the higher activity of this mutant REV-ERB.
The NCoR-Vp16 plasmid and REV-ERBα/β-FL GAL4-DBD wild-type or point mutation plasmids were incubated with the transfection agent, Lipofectamine 2000. GFP plasmid was also in the transfection mix to confirm transfection efficiency. HEK cells were plated in 10 cm dishes for western blot analysis, and HEK UAS-luc cells were plated in 96 well plates for luciferase assay analysis. Prior to cellular adherence, transfection mix was added. The cells and transfection mix were incubated at 37 °C in a humidified atmosphere of 5% CO2. The transfection incubation lasted overnight for luciferase assays and 48 h for protein isolation/western blot analysis. For luciferase assays, REV-ERB agonists were added in an 11-point serial dilution the day following overnight transfection. Cells were incubated with the compound for 24 h, prior to luciferin addition and luminescence read out.

REV-ERBα LBD = biological target: T1, REV-ERBα LBD (Homo sapiens, UniProt P20393); assay: FRET assay of NCoR ID1 CoRNR box recruitment; type: biochemical; design: agonist-dependent recruitment of NCoR ID1 CoRNR box to the REV-ERBα-LBD
T1 sequence (P20393 284-614 limits assumed): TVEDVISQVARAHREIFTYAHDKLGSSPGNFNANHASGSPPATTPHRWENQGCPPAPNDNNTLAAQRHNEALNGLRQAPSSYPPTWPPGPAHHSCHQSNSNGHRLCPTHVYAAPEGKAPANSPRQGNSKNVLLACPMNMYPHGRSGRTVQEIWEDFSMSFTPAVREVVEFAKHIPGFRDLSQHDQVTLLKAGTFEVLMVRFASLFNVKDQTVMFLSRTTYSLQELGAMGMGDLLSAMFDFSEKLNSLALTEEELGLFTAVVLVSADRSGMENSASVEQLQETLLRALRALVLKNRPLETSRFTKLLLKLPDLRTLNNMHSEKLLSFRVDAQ
Method: We noted a recent patent that described a series of REV-ERB agonists (6-substituted[1,2,4]triazolo[4,3-b]pyridazines) in assays that detected the ability of small molecules to enhance the interaction of REV-ERBα with NCoR either in biochemical or cell-based assays.
Histidine tagged REV-ERBα/β complexed with heme was added to each well to a final concentration of 4 nM. NCoR ID1 fluorescein (ref#PV4622, Batch# 1797468C) was added to each well to a final concentration of 150 nM, and terbium anti-histidine (ref#PV5895, batch 1730002B) was added to a final concentration of 1 nM. Mixture was incubated at room temperature on an orbital shaker for 1 h at 200 rpm. The lanthascreen assay protocol (Dual PMT, excitation 340 nm, dual emission 495/520, Gain 110/110) was used to read the plate.

BMAL1 in HepG2 cells = assay: expression of BMAL1 by qPCR; type: cell-based, human; design: key: Bmal1 expression normalized to Ppia; conditions: 5 μM, 24 h, single replicates (n = 4)
From the text: We next determined whether STL1267 can regulate characterized REV-ERB modulated genes in cell lines expressing REV-ERB naturally. Five micromolar doses of both drugs were used in cell-based experiments from this point on. REV-ERB is an established component of the core molecular clock repressing the expression of core clock gene Bmal1[6],[27] as well as others[28],[29]. […] In skeletal muscle, REV-ERB agonism increases the expression of a wide variety of genes important in mitochondrial function.
The human hepatocellular carcinoma cell line, HepG2 cells (ATCC HB-8065), were cultured in 10% FBS 1% L-Glu MEM at 37 °C in a humidified atmosphere of 5% CO2. Prior to RNA extraction cells were treated with either DMSO or REV-ERB agonist for 24 h. The C2C12 proliferating mouse myoblast cells (ATCC, CRL-1772) were cultured in 10% FBS DMEM at 37 °C in a humidified atmosphere of 5% CO2. Prior to RNA extraction cells were treated with either DMSO or REV-ERB agonist for 24 h. Prior to crystal violet cytotoxicity assay, cells were treated with either DMSO or REV-ERB agonist for 48 h.
Mouse tissue was homogenized using a bullet blender. DNA/protein was removed by phase separation using BCP/chloroform. The supernatant (RNA containing fraction) was collected, and RNA was precipitated using isopropanol. The RNA pellets were washed with 75% ethanol and resolubilized in RNAse free water. […]

- effect of mutation on STL1267 induced REV-ERBα/NCoR interaction [1]: loss or severe reduction in activity
- efficacy of NCoR ID1 recruitment relative to SR9009 (REV-ERBα LBD): roughly double
- potency relative to SR9009 in the FRET assay (REV-ERBα LBD): more than ten times greater
- EC50 (REV-ERBα LBD; REV-ERBα-LBD): 130 nM
- potency relative to SR9009 in the FRET assay (REV-ERBα LBD; listed as 1267): 14.6 fold
Compound: Clc1nnc2ccc(Oc3ccccc3-c3ccccc3)nn12 [STL1267]
- Bmal1 (Fig. 2c) expression (BMAL1 in HepG2 cells): attenuated the expression and 0.5800 and 0.6760 and 0.6148 and 0.7607
